Legend:
human IRE-1α = human IRE-1α (Homo sapiens (Human), UniProt O75460); test: IRE-1α assay: cleavage of mini-XBP-1 mRNA stem-loop substrate by GST-IRE-1α in vitro; format: biochemical; settings: values in text
Method: A fusion protein comprising glutathione S transferase (GST) and human IRE-1α (GST-IRE-1α) was obtained from a 500 ml baculovirus-infected insect cell culture and used to measure IRE-1α activity in vitro.
Five μl of a reaction mixture comprising 1× reaction buffer (5× reaction buffer is 100 mM Hepes pH 7.5, 250 mM KOAc, 2.5 mM MgCl2), 3 mM DTT, and 0.4% polyethylene glycol water were added to each well of 384 well plates. Twenty-five nanoliters of a 1 mM test compound solution were added to test wells. […] Negative control wells contained only reaction mixture and test compound.
The plates were again spun at 1200 rpm for 30 seconds.
The plates were covered with lids and incubated for one hour at 30° C. The plates were then transferred to an ACQUEST™ microplate reader. Data was analyzed using data analysis software, and the percent activity of IRE-1α was calculated.

RNase A = RNase A (Bos taurus (Bovine), UniProt P61823); test: RNase A assay with mini-XBP-1 mRNA stem-loop substrate; format: biochemical; settings: 2.5 μM test compound
Method: RNase A was assayed as described for RNase T1. Final concentrations for the assay were: 63 nM substrate, 0.4 pg RNase A (Qiagen; 100 mg/ml or 7000 U/ml), and 2.5 μM test compound.

RNase T1 = RNase T1 (Aspergillus oryzae (strain ATCC 42149 / RIB 40) (Yellow koji mold), UniProt P00651); test: T1 RNase assay with mini-XBP-1 mRNA stem-loop substrate; format: biochemical; settings: 2.5 μM test compound
Method: T1 RNase was assayed as follows. Five μl of a reaction mixture comprising 1× reaction buffer (5× reaction buffer is 100 mM Hepes pH 7.5, 250 mM KOAc, 2.5 mM MgCl2), 3 mM DTT, and 0.4% polyethylene glycol water were added to each well of 384 well plates. Twenty-five nanoliters of a 1 mM test compound solution were added to test wells. Three μl of a 1/48,000 dilution of an approximately 200,000 U/ml RNase T1 (Worthington) preparation were added to each test well and to positive control wells (final concentration 49.5 pg/well). Negative control wells contained only reaction mixture and test compound.
After spinning the plates at 1200 rpm for 30 seconds, 3 μl of the mini-XBP-1 mRNA stem-loop substrate described in Example 1 were added to each well of a control plate. The plates were again spun at 1200 rpm for 30 seconds. Final concentrations for the assay were: 63 nM substrate, 49.5 pg RNase T1, and 2.5 μM test compound.
The plates were covered with lids and incubated for one hour at 30° C. The plates were then transferred to an ACQUEST™ microplate reader. Data was analyzed using data analysis software. The percent activity of RNase T1 was calculated.

[1] = system: RPMI-8226 multiple myeloma cells; test: Proliferation of multiple myeloma cells (CellTiter-Glo); format: cell-based, human; settings: 24 hours, 100 μM to 0 μM
Method: FIG. 5. Graph showing inhibition of proliferation of multiple myeloma cells by IRE-1α inhibitor 11-28 (Example 11). RPMI-8226 multiple myeloma cells were seeded at 20,000 cells per well in RPMI culture medium containing 1% FBS and the required antibiotics. The plate was incubated overnight at 37° C., 95% air, 5% CO2. The following day, compound 11-28 or medium alone was added to wells, resulting in a final volume of 100 μl per well. The compound concentration ranged from 100 μM to 0 μM, with compounds diluted by a factor of 4. After addition of compound, the plate was incubated at 37° C., 95% air, 5% CO2 for 24 hours. Cell proliferation was measured using the CellTiter-Glo assay (Promega), following the manufacturer's instructions.
Proliferation assays using myeloma cell lines (U266, RPMI8226 and MM.1s) are used to determine ED50. Compounds are used as single agents and in combination with other chemotherapeutic drugs.

primary murine B cells = test: IgM secretion after LPS stimulation of primary B cells (ELISA); format: cell-based, mouse; settings: added at beginning of stimulation and again at 24 hours, 20 μg/ml LPS, 48 hr
Method: FIG. 9. Inhibition of IgM secretion after LPS stimulation of primary murine B cells with selected IRE-1α inhibitors. […] However, compounds had little effect when at added after 40 hours of stimulation; only slight inhibition at the highest dose. Methods were performed as previously described by Iwakoshi et al., Nature 4, 321-29, 2003 for B cell stimulation, plasma cell differentiation and IgM secretion. Primary B cells were Isolated from BALB/c splenocytes using mouse CD43 Microbeads (Miltenyi cat#130-049-801) with 1×10^6 cells per treatment. Purified B cells were stimulated in B Cell Media at a final density of 1×10^6/ml/well in 24-well plates with 20 μg/ml LPS (Sigma cat#L4391). IRE-1α inhibitor compound 17-1 was added at various concentrations (50 μM, 10 μM, 2 μM, 0.4 μM and 0.08 μM) at specified time points (t=0, t=24 hr, t=40 hr, etc.) Cells were incubated for 48 hr at 37° C. At end of the incubation, cells were spun in a plate at 1500 rpm/3 min. Supernatants were collected for quantitation for IgM secretion using a mouse IgM ELISA Kit (Bethyl Labs cat#E90-101). B Cell medium included RPMI+10% FBS supplemented with NEAA, HEPES, NaPyr, PSQ, and β-mercaptoethanol.

[2] = system: phosphorylated IRE-1α and XBP1-splicing in RPMI8226 cells; test: Western blot and RT-PCR of RPMI8226 cells after 24 hour treatment; format: cell-based, human
Excerpt: FIG. 6. […] The numbers indicate the concentration of bortezomib in nM.

RNase T1, sequence (P00651 27-130): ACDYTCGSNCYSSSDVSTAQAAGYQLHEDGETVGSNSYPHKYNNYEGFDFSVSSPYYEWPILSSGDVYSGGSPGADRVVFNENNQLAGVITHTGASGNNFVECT
RNase A, sequence (P61823 27-150): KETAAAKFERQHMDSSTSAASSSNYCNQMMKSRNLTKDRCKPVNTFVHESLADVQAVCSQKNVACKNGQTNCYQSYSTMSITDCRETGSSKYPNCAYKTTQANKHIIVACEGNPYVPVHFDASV
human IRE-1α, sequence (O75460 19-977): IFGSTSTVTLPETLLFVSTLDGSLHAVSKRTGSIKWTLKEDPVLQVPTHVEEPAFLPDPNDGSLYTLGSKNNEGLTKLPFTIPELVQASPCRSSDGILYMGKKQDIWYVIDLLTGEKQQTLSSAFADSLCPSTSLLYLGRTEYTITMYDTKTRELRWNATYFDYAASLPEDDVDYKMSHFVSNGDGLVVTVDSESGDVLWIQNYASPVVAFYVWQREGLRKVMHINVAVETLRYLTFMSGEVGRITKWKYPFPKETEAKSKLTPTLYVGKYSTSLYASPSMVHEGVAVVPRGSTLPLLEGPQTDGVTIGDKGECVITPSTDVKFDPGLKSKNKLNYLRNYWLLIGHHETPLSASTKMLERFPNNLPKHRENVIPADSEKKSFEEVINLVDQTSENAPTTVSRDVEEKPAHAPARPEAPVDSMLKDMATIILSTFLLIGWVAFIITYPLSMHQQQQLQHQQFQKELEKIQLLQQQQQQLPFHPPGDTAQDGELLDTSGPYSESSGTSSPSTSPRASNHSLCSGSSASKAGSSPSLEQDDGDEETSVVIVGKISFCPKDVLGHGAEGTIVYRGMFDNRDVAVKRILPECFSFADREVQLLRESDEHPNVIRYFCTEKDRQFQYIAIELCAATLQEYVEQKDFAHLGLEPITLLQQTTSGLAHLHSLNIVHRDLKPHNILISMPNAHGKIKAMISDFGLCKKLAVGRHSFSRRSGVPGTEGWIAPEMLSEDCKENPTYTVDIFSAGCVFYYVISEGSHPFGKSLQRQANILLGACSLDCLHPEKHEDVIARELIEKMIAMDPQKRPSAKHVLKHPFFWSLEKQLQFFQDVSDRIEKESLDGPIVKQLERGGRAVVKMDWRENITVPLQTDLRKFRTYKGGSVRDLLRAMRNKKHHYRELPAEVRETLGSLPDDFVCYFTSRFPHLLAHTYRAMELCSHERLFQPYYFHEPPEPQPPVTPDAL

SMILES	selectivity for IRE-1 over RNase A (RNase A)	selectivity for IRE-1 over T1 RNase (RNase T1)	other results
CCOc1cccc(C=O)c1O [3-ethoxy o-vanillin, 2-hydroxy-3-ethoxybenzaldehyde]	selective for IRE-1	selective for IRE-1	IC50 (human IRE-1α): 1000 nM
COc1ccc(Br)c(C=O)c1O [6-bromo o-vanillin]	selective for IRE-1	selective for IRE-1	
COc1cc(-c2cccs2)cc(C=O)c1O [11-28]			inhibition of proliferation [1]: inhibits the proliferation
CN(C)C(=O)c1ccc(-c2ccc3c(C=O)c(O)ccc3c2)cc1 [17-1, 4-(5-formyl-6-hydroxynaphthalen-2-yl)-N,N-dimethylbenzamide]			IgM secretion (primary murine B cells): blocked IgM secretion at all doses tested down to 100 nM
CC(C)C[C@H](NC(=O)[C@H](Cc1ccccc1)NC(=O)c1cnccn1)B(O)O [bortezomib, [(1R)-3-methyl-1-[[(2S)-1-oxo-3-phenyl-2-[(pyrazinylcarbonyl)amino]propyl]amino]butyl]boronic acid]			levels of phosphorylated IRE-1α and XBP1-splicing [2]: increases the levels of phosphorylated IRE-1α and XBP1-splicing
COc1cccc(C=O)c1O [o-vanillin, 2-hydroxy-3-methoxybenzaldehyde]	selective for IRE-1	selective for IRE-1	
